Legend:
Cathepsin B, H, L, S = experiment: Cathepsin activity with pan-cathepsin substrate Z-FR-amc; assay type: cell-based
Procedure: Cathepsin B, H, L, S activity was measured with pan-cathepsin substrate Z-FR-amc (Kirschke & Wiederanders (1994) Methods Enzymol. 244:500-11) in extracts of cytosol-less cells at pH 6.0 (Screen, et al. (2010) supra). Cathepsin D activity was measured in cytosol-less extracts using SENSOLYTE 520 Cathepsin D Fluorometric Assay Kit (AnaSpec). Combined cathepsin D and E activity was measured using the same kit, in which cathepsin D substrate provided with the kit was replaced with 7-Methoxycoumarin-[…](Dnp)-X′-NH2 (SEQ ID NO:10; where “X′” stand for D-Arg) internally quenched fluorogenic substrate of cathepsin D and E. In this case, pH 3.0 assay buffer used for cell extraction. All activity observed using both procedures was inhibited by more than 98% by specific inhibitor of aspartic proteases pepstatin A.

[1] = system: Caspase-3/7 activity in NCI-H929 and MM1.R cell lines; experiment: APO-ONE caspase-3/7 assay; assay type: cell-based; details: combination of NC-001 and NC-002
Procedure: RPMI-8226 and NCI-H929 cells were cultured in RPMI-1640 supplemented with 10% fetal bovine serum, penicillin, streptomycin, and plasmocin in 5% CO2 humidified incubator. HEK-293T cells were cultured in DMEM containing 10% fetal calf serum, 10 units/mL penicillin, and 10 μg/mL streptomycin in a 7% CO2 humidified incubator. Viability of multiple myeloma cells was measured with ALAMAR BLUE mitochondrial dye conversion assay. Viability of peripheral blood mononuclear cells (PBMNCs) was measured using CELL TITER-GLO luminescent cell viability assay (Promega), which is based on quantification of ATP present in the cells. Caspase-3/7 activity was measured using APO-ONE 3/7 homogeneous assay (Promega).

[2] = biological target: T1, trypsin-like site of 26S proteasomes (Oryctolagus cuniculus, UniProt G1SWK8); experiment: Inhibition of purified 26S proteasomes, substrate Ac-RLR-amc; assay type: biochemical, rabbit; details: 26S proteasomes from rabbit muscles
T1 construct: IC50 for sites in 26S proteasomes: Tr-L; other: purified 26S proteasomes; other: 26S proteasomes from rabbit muscles
T1 sequence (G1SWK8 1-271): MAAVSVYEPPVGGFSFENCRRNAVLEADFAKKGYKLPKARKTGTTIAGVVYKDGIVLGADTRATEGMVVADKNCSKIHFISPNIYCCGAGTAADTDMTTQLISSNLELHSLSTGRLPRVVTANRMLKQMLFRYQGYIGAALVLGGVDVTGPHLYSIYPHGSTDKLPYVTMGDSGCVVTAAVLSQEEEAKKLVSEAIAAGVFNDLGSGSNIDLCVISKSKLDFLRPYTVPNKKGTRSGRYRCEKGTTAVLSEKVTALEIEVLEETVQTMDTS

[3] = system: trypsin-like site of 26S proteasomes; experiment: as above; assay type: biochemical, rabbit; details: rabbit 26S proteasomes
[4] = biological target: T2, chymotrypsin-like site of 26S proteasomes (Oryctolagus cuniculus, UniProt G1T4Q9); experiment: Inhibition of purified 26S proteasomes, substrate Suc-LLVY-amc; assay type: biochemical, rabbit; details: >>30 no inhibition at 30 μM, >30 inhibition between 10 and 50% at 30 μM, read-out: IC50 for sites in 26S proteasomes: Chym-L
T2 sequence (G1T4Q9 1-263): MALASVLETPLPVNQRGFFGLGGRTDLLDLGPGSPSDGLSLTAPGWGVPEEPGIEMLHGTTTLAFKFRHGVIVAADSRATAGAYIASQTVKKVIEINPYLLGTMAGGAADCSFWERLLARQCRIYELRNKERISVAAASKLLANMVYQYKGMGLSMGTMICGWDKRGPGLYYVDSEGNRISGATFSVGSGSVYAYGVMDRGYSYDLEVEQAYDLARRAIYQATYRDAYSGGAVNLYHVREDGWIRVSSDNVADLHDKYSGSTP

β2 and β2i sites = experiment: MV-151 label-competition in extracts of RPMI-8226 MM cells; assay type: biochemical; details: extracts of RPMI-8226 cells, MV-151 probe
From the text: Multiple myeloma cells express constitutive proteasomes and immunoproteasomes, and substrates used for the measurement of activity were cleaved by both. To determine whether there were any differences in inhibition of constitutive proteasomes or immunoproteasomes by NC-002, NC-012, and NC-022, the fluorescent activity-based probe MV-151 (Verdoes, et al. (2006) Chem. Biol. 13:1217-1226) was used in a label-competition experiment. Extracts of RPMI-8226 MM cells (which express more immunoproteasomes than NCI-H929 cells) were treated first with the NC inhibitors and then with the MV-151 probe. This was followed by fractionation on SDS-PAGE to separate proteasome subunits and imaging to reveal those subunits labeled by the probe (i.e., unmodified by the inhibitors).

[5] = biological target: caspase-like site of 26S proteasomes (Oryctolagus cuniculus, UniProt A0A5F9DQW2); experiment: Inhibition of purified 26S proteasomes, substrate Ac-nLPnLD-amc; assay type: biochemical, rabbit; details: >>30 no inhibition at 30 μM, >30 inhibition between 10 and 50% at 30 μM, read-out: IC50 for sites in 26S proteasomes: Casp-L
Procedure: 26S proteasomes were purified from rabbit muscle using known methods (Screen, et al. (2010) supra). […] NOVEX Bis-Tris gels (12%, Invitrogen) with MOPS running buffer were used for electrophoretic separation of catalytic subunits modified by active-site probes. Inhibition of active sites inside cells was assayed using luminescent PROTEASOMEGLO assay (Promega; Moravec, et al. (2009) Anal. Biochem. 387:294-302) according to known methods (Britton, et al. (2009) supra).

[6] = biological target: T3, trypsin-like sites (β2) of proteasome in MM cells (Homo sapiens, UniProt Q99436); experiment: PROTEASOMEGLO assay of proteasome inhibition in MM cells; assay type: cell-based; details: NCI-H929 cells treated overnight
T3 construct: endogenous in cells; host or cells: NCI-H929, RPMI-8226 and other MM cell lines
T3 sequence (Q99436 44-277): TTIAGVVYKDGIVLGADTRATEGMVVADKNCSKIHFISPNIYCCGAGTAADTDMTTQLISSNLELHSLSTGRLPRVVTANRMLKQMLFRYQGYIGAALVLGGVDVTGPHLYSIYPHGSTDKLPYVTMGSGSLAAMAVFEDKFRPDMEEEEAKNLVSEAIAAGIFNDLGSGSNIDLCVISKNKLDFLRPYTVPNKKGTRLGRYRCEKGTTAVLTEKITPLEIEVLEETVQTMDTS

Chain of caspase-like site of 26S proteasomes (A0A5F9DQW2 1-212): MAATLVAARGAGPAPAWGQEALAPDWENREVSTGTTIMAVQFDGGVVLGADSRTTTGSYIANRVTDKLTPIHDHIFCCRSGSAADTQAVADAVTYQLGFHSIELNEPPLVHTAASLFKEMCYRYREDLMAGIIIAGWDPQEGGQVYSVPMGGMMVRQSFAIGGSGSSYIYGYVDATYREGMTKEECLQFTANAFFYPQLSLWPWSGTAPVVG

## CC(=O)N[C@@H](CC(C)C)C(=O)N[C@@H](CC(C)C)C(=O)N[C@@H](CCCNC(=N)N)C(=O)[C@@]1(C)CO1 [NC-002, Ac-Leu-Leu-Arg-ek]
Cathepsin B, H, L, S
  inhibition of lysosomal cysteine proteases: did not inhibit
[1]
  caspase activity (apoptosis): did not cause any significant increase in caspase activity
[2]
  proteasome inhibitory potential on purified 26S proteasomes: potent and specific inhibitors of the trypsin-like sites
[3]
  IC50 (Chym-L)/IC50 (Tr-L): >30
[4]
  IC50: > 30 µM
β2 and β2i sites
  inhibition of constitutive (β2) versus immunoproteasome (β2i) trypsin-like sites: equipotent inhibitors of the trypsin-like sites of constitutive and immunoproteasomes
[5]
  IC50: > 30 µM
[6]
  inhibition of trypsin-like activity in live cells: sub-micromolar concentrations

From patent US8609610B2, “Inhibitors of the trypsin-like site of the proteasome and methods of use thereof” (Trustees of Dartmouth College, priority 2011, dated 2013)
